Earlier results, collected in patent US9474689B2, “Delamination resistant pharmaceutical glass containers containing active pharmaceutical ingredients” (Corning Incorporated, priority 2011, dated 2016).

Experiments:
Enterobacteriaceae = conditions: in vitro
P. aeruginosa = conditions: against P. aeruginosa
TNFβ (lymphotoxin-α) = target: T1, TNFβ (lymphotoxin-α) (Homo sapiens, UniProt P01374)
T1 sequence (P01374 35-205): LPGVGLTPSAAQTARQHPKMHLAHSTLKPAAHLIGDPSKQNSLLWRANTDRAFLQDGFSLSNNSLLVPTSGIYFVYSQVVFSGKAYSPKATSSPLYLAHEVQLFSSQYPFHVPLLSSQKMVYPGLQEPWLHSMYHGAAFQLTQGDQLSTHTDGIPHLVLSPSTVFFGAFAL

[1] = tested on: soluble and transmembrane forms of TNFα
Chain of soluble and transmembrane forms of TNFα (P01375 77-233 limits assumed): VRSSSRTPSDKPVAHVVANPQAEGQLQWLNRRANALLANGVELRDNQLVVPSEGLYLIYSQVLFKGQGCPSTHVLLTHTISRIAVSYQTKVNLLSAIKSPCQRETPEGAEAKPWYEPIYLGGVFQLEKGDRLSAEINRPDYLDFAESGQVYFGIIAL

C[C@@H](O)[C@H]1C(=O)N2C(C(=O)O)=C(S[C@@H]3CN[C@H](CNS(N)(=O)=O)C3)[C@H](C)[C@H]12 [Doripenem, doripenem]
activity against Enterobacteriaceae (Enterobacteriaceae): excellent activity
post-antibiotic effects in vitro (P. aeruginosa): about two hours
protein binding: low protein binding

Infliximab: chimeric IgG1κ monoclonal antibody specific for human tumor necrosis factor-alpha
neutralization of TNFβ (TNFβ (lymphotoxin-α)): does not neutralize
binding affinity to TNFα [1]: high affinity
